The values below come from ChEMBL document CHEMBL2203274, “Desmethyl Macrolides: Synthesis and Evaluation of 4,8-Didesmethyl Telithromycin” (2012).

Holding throughout (format): functional
The subject of assay [1] is Staphylococcus aureus. The assay can be described thus: Antibacterial activity against Staphylococcus aureus ATCC 33591 harboring ermA mutant in presence of DMSO.
Assay [2] relates to Staphylococcus aureus. The assay can be described thus: Antibacterial activity against Staphylococcus aureus UCN14 harboring ribosomal A2058T mutant in presence of DMSO.
Assay [3] deals with Escherichia coli. The assay can be described thus: Antibacterial activity against Escherichia coli DK/2058G harboring 23S rRNA A2058G mutant in presence of DMSO.
In assay [4] the test system is Escherichia coli. As to the kind of experiment: Antibacterial activity against wild type Escherichia coli DK/pKK3535 in presence of DMSO.
Assay [5] has as its system Escherichia coli. As to the kind of experiment: Antibacterial activity against Escherichia coli SQ171/2058G harboring 23S rRNA A2058G mutant in presence of DMSO.
The subject of assay [6] is Staphylococcus aureus. The assay can be described thus: Antibacterial activity against Staphylococcus aureus ATCC 33591 harboring ermA mutant in presence of ethanol.
For assay [7], the system named is Staphylococcus aureus. The assay can be described thus: Antibacterial activity against Staphylococcus aureus UCN14 harboring ribosomal A2058T mutant in presence of ethanol.
The subject of assay [8] is Escherichia coli. The assay can be described thus: Antibacterial activity against Escherichia coli DK/2058G harboring 23S rRNA A2058G mutant in presence of ethanol.
Assay [9] concerns Escherichia coli. The assay can be described thus: Antibacterial activity against wild type Escherichia coli DK/pKK3535 in presence of ethanol.
Assay [10] concerns Escherichia coli. The assay can be described thus: Antibacterial activity against Escherichia coli SQ171/2058G harboring 23S rRNA A2058G mutant in presence of ethanol.

A word on the MIC: it is the lowest concentration that inhibits growth of the organism. For the compound `CC[C@H]1OC(=O)[C@H](C)C(=O)C[C@@H](O[C@@H]2O[C@H](C)C[C@H](N(C)C)[C@H]2O)[C@](C)(OC)C[C@@H](C)C(=O)C[C@H]2N(CCCCn3cnc(-c4cccnc4)c3)C(=O)O[C@]12C`, the minimal inhibitory concentration (MIC) was greater than 128 µg/mL in the assay with Staphylococcus aureus [1]; greater than 256 µg/mL in the assay with Staphylococcus aureus [2]; 16 µg/mL in the assay on Escherichia coli [3]; 8 µg/mL with Escherichia coli [4]; greater than 512 µg/mL with Escherichia coli [5].

As for `CC[C@H]1OC(=O)[C@H](C)C(=O)C[C@@H](O[C@@H]2O[C@H](C)C[C@H](N(C)C)[C@H]2O)[C@@](C)(OC)CCC(=O)C[C@H]2[C@@H]1OC(=O)N2CCCCn1cnc(-c2cccnc2)c1` [4,8,10-TRIDESMETHYL TELITHROMYCIN], the MIC with Staphylococcus aureus [6] was greater than 128 µg/mL; in the assay on Staphylococcus aureus [7], 32 µg/mL; in the assay on Escherichia coli [8] it was 64 µg/mL; in the assay with Escherichia coli [9], 32 µg/mL; in the assay on Escherichia coli [10], greater than 512 µg/mL.

As to `CC[C@H]1OC(=O)[C@H](C)C(=O)[C@H](C)[C@@H](O[C@@H]2O[C@H](C)C[C@H](N(C)C)[C@H]2O)[C@](C)(OC)C[C@@H](C)C(=O)[C@H](C)[C@H]2N(CCCCn3cnc(-c4cccnc4)c3)C(=O)O[C@]12C` [TELITHROMYCIN], the MIC in the assay with Staphylococcus aureus [1] was greater than 128 µg/mL; in the assay on Staphylococcus aureus [2], greater than 128 µg/mL; in the assay on Escherichia coli [3] it was 1 µg/mL; with Escherichia coli [4], 0.5 µg/mL; in the assay with Escherichia coli [5] it was greater than 512 µg/mL; with Staphylococcus aureus [6], greater than 128 µg/mL. Further, the minimal inhibitory concentration (MIC) in the assay with Staphylococcus aureus [7] was greater than 256 µg/mL; in the assay with Escherichia coli [8], 1 µg/mL; in the assay on Escherichia coli [9] it was 0.5 µg/mL; in the assay with Escherichia coli [10], greater than 512 µg/mL.

`CC[C@H]1OC(=O)[C@H](C)C(=O)C[C@@H](O[C@@H]2O[C@H](C)C[C@H](N(C)C)[C@H]2O)[C@](C)(OC)CCC(=O)[C@H](C)[C@H]2N(CCCCn3cnc(-c4cccnc4)c3)C(=O)O[C@]12C`: the MIC in the assay with Staphylococcus aureus [1] was greater than 64 µg/mL; with Staphylococcus aureus [2], greater than 256 µg/mL; in the assay with Escherichia coli [3], 32 µg/mL; with Escherichia coli [4] it was 4 µg/mL; with Escherichia coli [5], greater than 512 µg/mL.
